Test results as given in PMC11100219, “Dual-function antimicrobial-antibiofilm peptide hybrid to tackle biofilm-forming Staphylococcus epidermidis” (Annals of Clinical Microbiology and Antimicrobials, 2024).
In brackets after ≈: the same amount, converted by molar mass. Residues, ends and D or L forms follow the SMILES beside them.

Columns and labels:
[1] = tested on: S. epidermidis (ATCC 35984) biofilm; test: Biofilm-formation inhibitory activity, crystal violet staining; format: cell-based, Staphylococcus epidermidis; conditions: CV staining, TSB, 10^6 CFU/mL, 24 h, 37°C, 0.98-250 µg/mL; for MBIC50: minimum concentration inhibiting biofilm formation more than 50%; for MBIC90: minimum concentration inhibiting biofilm formation more than 90%
Protocol: The biofilm inhibitory activity of peptide derivatives was assessed by modified crystal violet (CV) staining. Briefly, the pellet of S. epidermidis (ATCC 35984) was collected through centrifugation of bacterial suspensions grown overnight at 2,500 × g for 5 min. Subsequently, the pellet was resuspended and diluted with TSB to a final concentration of 10^6 CFU/mL. Then, 50 µL of these diluted suspensions was transferred to 96-well microplates containing same volume of peptide derivatives in 10 mM phosphate buffer saline (PBS; Caisson Labs, USA), with concentrations ranging from 0.98 to 250 µg/mL. Vancomycin was used as positive control while TSB medium without bacteria was used as negative control. After 24 h of incubation and reaching static growth at 37°C, culture media as well as planktonic cells were removed, then the biofilm in each well was washed thrice with 0.85% NaCl. For CV staining, biofilms were fixed with 95% ethanol and stained with a 0.1% (v/v) CV solution for 15 min. After removal of excess dye, each well was washed thrice with 0.85% NaCl and resuspended in 95% ethanol to dissolve bound dye. Absorbance was determined at 570 nm using a Multiskan SkyHigh microplate reader (Thermo Scientific™, Singapore). All experiments were done in six technical replicates and repeated independently three times. Minimum biofilm inhibitory concentrations at 50% and 90% (MBIC50 and MBIC90) refers to concentrations of the peptide at which the inhibition of biofilm was at least 50% and 90%, respectively.

[2] = tested on: Acinetobacter baumanii MT strain; test: Broth microdilution MIC / MBC; format: cell-based; conditions: 24 h, 37°C; for MIC: broth microdilution, MHB, 0.98-250 µg/mL, visible inspection; for MBC: plating of non-turbid wells on TSA
Protocol: (§1) The minimal inhibitory concentrations (MICs) of peptide derivatives versus planktonic bacteria were assessed using a modification of the broth microdilution assay previously described in the National Committee for Clinical Laboratory Standards (NCCLS). In brief, bacteria at mid-logarithmic growth were collected by centrifugation at 2,500 × g for 5 min. Subsequently, the pellet was resuspended and adjusted in Mueller-Hinton Broth (MHB; BD Bacto™, USA) to an OD620 of 0.05. Fifty µL of bacterial suspensions was transferred to 96-well microplates. Later, 50 µL of peptide derivatives at 0.98–250 µg/mL in 10 mM PBS, was added to wells and incubated for 24 h at 37°C with continuous shaking at 220 rpm. […] The experiments were done in three technical replicates and repeated independently.
(§2) To determine minimal bactericidal concentrations (MBCs) of the peptides, 50 µL of supernatant from non-turbid wells was plated on TSA, and the number of colony-forming units (CFUs) was observed after 24 h of incubation at 37°C. MBC was defined as the minimum concentration of peptide at which no bacterial colony was observed on the plate.

[3] = tested on: Bacillus cereus ATCC 11778; test: Broth microdilution MIC / MBC; format: cell-based; conditions: 24 h, 37°C; for MIC: broth microdilution, MHB, 0.98-250 µg/mL, visible inspection; for MBC: plating of non-turbid wells on TSA
Protocol: as §1, §2

[4] = tested on: Escherichia coli ATCC 25922; test: Broth microdilution MIC / MBC; format: cell-based; conditions: 24 h, 37°C; for MIC: broth microdilution, MHB, 0.98-250 µg/mL, visible inspection; for MBC: plating of non-turbid wells on TSA
Protocol: as §1, §2

[5] = tested on: Listeria monocytogenes 10403s; test: Broth microdilution MIC / MBC; format: cell-based; conditions: 24 h, 37°C; for MIC: broth microdilution, MHB, 0.98-250 µg/mL, visible inspection; for MBC: plating of non-turbid wells on TSA
Protocol: as §1, §2

[6] = tested on: Pseudomonas aeruginosa ATCC 27853; test: Broth microdilution MIC / MBC; format: cell-based; conditions: 24 h, 37°C; for MIC: broth microdilution, MHB, 0.98-250 µg/mL, visible inspection; for MBC: plating of non-turbid wells on TSA
Protocol: as §1, §2

[7] = tested on: Salmonella Typhimurium ATCC 13311; test: Broth microdilution MIC / MBC; format: cell-based; conditions: 24 h, 37°C; for MIC: broth microdilution, MHB, 0.98-250 µg/mL, visible inspection; for MBC: plating of non-turbid wells on TSA
Protocol: as §1, §2

[8] = tested on: Staphylococcus aureus ATCC 25923; test: Broth microdilution MIC / MBC; format: cell-based; conditions: 24 h, 37°C; for MIC: broth microdilution, MHB, 0.98-250 µg/mL, visible inspection; for MBC: plating of non-turbid wells on TSA
Protocol: as §1, §2

[9] = tested on: Staphylococcus epidermidis ATCC 35984; test: Broth microdilution MIC / MBC; format: cell-based; conditions: 24 h, 37°C; for MIC: broth microdilution, MHB, 0.98-250 µg/mL, visible inspection; for MBC: plating of non-turbid wells on TSA
Protocol: as §1, §2

[10] = tested on: human red blood cells (hRBCs); test: Hemolysis activity (hemoglobin release); format: cell-based; conditions: 1 h, 37°C; for MHC, minimum hemolytic concentration: peptide concentration causing 10% hemolysis of hRBCs, 2% hRBCs in 10 mM PBS, OD405
Protocol: The effect of peptides on human red blood cells (hRBCs) was assessed by observing the release of hemoglobin upon treated with peptide. Briefly, the hRBCs were obtained from healthy volunteers and subsequently diluted in 10 mM PBS to a concentration of 2% hRBCs. An equal volume of 2% hRBCs and peptide at concentration of 0.98–250 µg/mL in 10 mM PBS mixtures were incubated for 1 h at 37°C. Following incubation, the suspension was centrifuged, then supernatants were collected and transferred to 96-well microplates for measurement of absorbance at OD of 405 nm (OD405). This study was performed in accordance with the Thammasat University Ethics Committee (COA No. 066/2562). Written informed consent was obtained from all volunteers.

[11] = tested on: all gram-positive bacterial strains; test: Mean MIC and therapeutic index, gram-positive strains; format: cell-based; conditions: four gram-positive strains
Protocol: as §1
(§3) The therapeutic index (TI) is widely used for evaluating a peptide’s efficacy and safety. It is the ratio between the minimum hemolytic concentration (MHC, the concentration causing 10% hemolysis) and the geometric mean (GM) value of the MIC [15]. […] While, both lysine-substituted peptides (BiF2_7K and BiF2_5K7K) had higher TIs against all tested biofilm-forming bacteria than did the two parent peptides, and the TI of BiF2_5K7K was higher than that of BiF2_7K.

[12] = tested on: all gram-negative bacterial strains; test: Mean MIC and therapeutic index, gram-negative strains; format: cell-based; conditions: four gram-negative strains
Protocol: as §1, §3

| SMILES | MBIC50 [1] | MBIC90 [1] | MIC [2] | MBC [2] | MIC [3] | MBC [3] | MIC [4] | MBC [4] | MIC [5] | MBC [5] | MIC [6] | MBC [6] | MIC [7] | MBC [7] | MIC [8] | MBC [8] | MIC [9] | MBC [9] | MHC, minimum hemolytic concentration [10] | GM +, geometric mean of MIC values from all gram-positive bacterial strains [11] | other results |
| --- | --- | --- | --- | --- | --- | --- | --- | --- | --- | --- | --- | --- | --- | --- | --- | --- | --- | --- | --- | --- | --- |
| CC[C@H](C)[C@H](NC(=O)[C@H](CC(C)C)NC(=O)[C@H](CCCCN)NC(=O)[C@@H](NC(=O)[C@H](CC(C)C)NC(=O)[C@@H](N)Cc1ccccc1)C(C)C)C(=O)N[C@@H](CC(C)C)C(=O)N[C@@H](CCCCN)C(=O)N[C@H](C(=O)N[C@@H](CC(C)C)C(=O)N[C@@H](CCCNC(=N)N)C(=O)N[C@@H](CCCNC(=N)N)C(N)=O)[C@@H](C)CC [BiF2] (H-FLVKLILKILRR-NH2; N-terminus assumed) | 125 µg/mL | 250 µg/mL | 62.5 µg/mL (≈ 41.4 µM) | 62.5 µg/mL (≈ 41.4 µM) | 15.6 µg/mL (≈ 10.3 µM) | 15.6 µg/mL (≈ 10.3 µM) | 31.2 µg/mL (≈ 20.7 µM) | 31.2 µg/mL (≈ 20.7 µM) | 15.63 µg/mL (≈ 10.3 µM) | 31.25 µg/mL (≈ 20.7 µM) | 15.63 µg/mL (≈ 10.3 µM) | 31.25 µg/mL (≈ 20.7 µM) | 62.5 µg/mL (≈ 41.4 µM) | 62.5 µg/mL (≈ 41.4 µM) | 62.5 µg/mL (≈ 41.4 µM) | 62.5 µg/mL (≈ 41.4 µM) | 31.25 µg/mL (≈ 20.7 µM) | 62.5 µg/mL (≈ 41.4 µM) | 1.95 µg/mL | 31.25 µg/mL | GM-, geometric mean of MIC values from all gram-negative bacterial strains [12]: 42.97 µg/mL |
| CC[C@H](C)[C@H](NC(=O)[C@H](CC(C)C)NC(=O)[C@H](CCCCN)NC(=O)[C@@H](NC(=O)[C@H](CC(C)C)NC(=O)[C@@H](N)Cc1ccccc1)C(C)C)C(=O)N[C@@H](CCCCN)C(=O)N[C@@H](CCCCN)C(=O)N[C@H](C(=O)N[C@@H](CC(C)C)C(=O)N[C@@H](CCCNC(=N)N)C(=O)N[C@@H](CCCNC(=N)N)C(N)=O)[C@@H](C)CC [BiF2_7K] (H-FLVKLIKKILRR-NH2; N-terminus assumed) | 3.91 µg/mL | 7.81 µg/mL | 7.81 µg/mL (≈ 5.12 µM) | 7.81 µg/mL (≈ 5.12 µM) | 7.81 µg/mL (≈ 5.12 µM) | 7.81 µg/mL (≈ 5.12 µM) | 31.2 µg/mL (≈ 20.5 µM) | 31.2 µg/mL (≈ 20.5 µM) | 7.81 µg/mL (≈ 5.12 µM) | 7.81 µg/mL (≈ 5.12 µM) | 15.6 µg/mL (≈ 10.2 µM) | 15.6 µg/mL (≈ 10.2 µM) | 7.81 µg/mL (≈ 5.12 µM) | 15.63 µg/mL (≈ 10.2 µM) | 15.6 µg/mL (≈ 10.2 µM) | 15.6 µg/mL (≈ 10.2 µM) | 7.81 µg/mL (≈ 5.12 µM) | 7.81 µg/mL (≈ 5.12 µM) | 15.63 µg/mL | 9.77 µg/mL | hemolytic activity ([10]; at 250 µg/mL (maximum concentration tested)): 60%; GM-, geometric mean of MIC values from all gram-negative bacterial strains [12]: 15.63 µg/mL |
